Laboratory results reported in patent USRE49022E1, “Insecticidal compounds” (SYNGENTA PARTICIPATIONS AG, priority 2013, dated 2022).

How the values were obtained:
Type in all cases: in vivo
[1] = system: Tetranychus urticae (Two-Spotted Spider Mite); assay: Tetranychus urticae, bean leaf disc spray test; conditions: foliar, 192 h, sprayed bean leaf discs, mite populations of mixed ages, 8 days
Excerpt: Bean leaf discs on agar in 24-well microtiter plates were sprayed with test solutions at an application rate of 200 ppm. After drying, the leaf discs are infested with mite populations of mixed ages. 8 days later, discs were checked for mortality.

[2] = system: Thrips tabaci (Onion Thrips); assay: Thrips tabaci, sunflower leaf disc spray test; conditions: foliar, 168 h, sprayed sunflower leaf discs, mortality after 7 days
[3] = system: Spodoptera littoralis (Egyptian Cotton Leafworm); assay: Spodoptera littoralis, cotton leaf disc spray test; conditions: foliar, 72 h, sprayed cotton leaf discs, L1 larvae, 3 days after treatment
Excerpt: Cotton leaf discs were placed on agar in a 24-well microtiter plate and sprayed with test solutions at an application rate of 200 ppm. After drying, the leaf discs were infested with 5 L1 larvae. The samples were checked for mortality 3 days after treatment (DAT).

[4] = system: Plutella xylostella (Diamond Back Moth); assay: Plutella xylostella, artificial diet MTP test; conditions: 144 h, 200 ppm (concentration in well 18 ppm), L2 larvae, 6 days
Procedure: 24-well microtiter plate (MTP) with artificial diet was treated with test solutions at an application rate of 200 ppm (concentration in well 18 ppm) by pipetting. After drying, the MTP's were infested with L2 larvae (7-12 per well). After an incubation period of 6 days, samples were checked for larval mortality and growth regulation. The following compound gave at least 80% mortality of Plutella xylostella: 1, 2, 3, 4, 5, 6, 7, 8, 9, 10, 11, 12, 13, 14, 15, 16, 17, 18, 19, 20, 21, 22, 23, 24, 25, 26, 27, 28, 29, 30, 31, 32, 33, 34, 35, 36, 37, 38, 39, 40, 41, 42, 43, 44, 45, 46, 47, 48, 49, 50.

[5] = system: Diabrotica balteata (Corn Root Worm); assay: Diabrotica balteata, artificial diet MTP test; conditions: 120 h, 200 ppm (concentration in well 18 ppm), L2 larvae, larval mortality after 5 days
Procedure: A 24-well microtiter plate (MTP) with artificial diet was treated with test solutions at an application rate of 200 ppm (concentration in well 18 ppm) by pipetting. After drying, the MTP's were infested with L2 larvae (6-10 per well). After an incubation period of 5 days, samples were checked for larval mortality The following compound gave at least 80% control of Diabrotica balteata: 1, 2, 3, 4, 5, 6, 7, 8, 9, 10, 11, 12, 13, 14, 15, 16, 17, 18, 19, 20, 21, 22, 23, 24, 25, 26, 27, 28, 29, 30, 31, 32, 33, 34, 35, 36, 37, 38, 39, 40, 41, 42, 43, 44, 45, 46, 47, 48, 49, 50, 51.

[6] = system: Myzus persicae (Green Peach Aphid); assay: Myzus persicae, sucrose solution / Parafilm test; conditions: 120 h, mixed with sucrose solution under Parafilm, mortality 5 days after infestation
Excerpt: Test compounds were applied by pipette into 24 well plates and mixed with Sucrose solution. Application rate: 12.5 ppm. The plates were closed with a stretched Parafilm. A plastic stencil with 24 holes is placed onto the plate and infested pea seedlings were placed directly on the Parafilm. The infested plate is closed with a gel blotting paper and another plastic stencil and then turned upside down. 5 days after infestation the samples were checked on mortality.

[7] = system: Myzus persicae (Green Peach Aphid); assay: Myzus persicae, sunflower leaf disc spray test; conditions: foliar, 144 h, sprayed sunflower leaf discs, aphid population of mixed ages, mortality after 6 DAT
Procedure: Sunflower leaf discs were placed on agar in a 24-well microtiter plate and sprayed with test solutions at an application rate of 200 ppm. After drying, the leaf discs were infested with an aphid population of mixed ages. After an incubation period of 6 DAT, samples were checked for mortality.

CCc1cc(C(F)(C(F)(F)F)C(F)(F)Cl)cc(Br)c1NC(=O)c1cccc(NC(=O)c2ccncc2)c1F (stereo not shown) [Compound 17]
≥ 80%: mortality at 200 ppm [1] | pest or weed control at 200 ppm [2] | mortality at 200 ppm [3] | mortality at 200 ppm [4] | pest or weed control at 200 ppm [5] | pest or weed control at 12.5 ppm [6] | pest or weed control at 200 ppm [7]

CCc1cc(C(F)(C(F)(F)F)C(F)(F)Cl)cc(Br)c1NC(=O)c1cccc(NC(=O)c2cccnc2)c1F (stereo not shown) [Compound 18]
≥ 80%: mortality at 200 ppm [1] | pest or weed control at 200 ppm [2] | mortality at 200 ppm [3] | mortality at 200 ppm [4] | pest or weed control at 200 ppm [5] | pest or weed control at 12.5 ppm [6] | pest or weed control at 200 ppm [7]

CCc1cc(C(F)(C(F)(F)F)C(F)(F)Cl)cc(Br)c1NC(=O)c1cccc(NC(=O)c2ccc(C#N)cc2)c1F (stereo not shown) [Compound 19]
≥ 80%: mortality at 200 ppm [1] | pest or weed control at 200 ppm [2] | mortality at 200 ppm [3] | mortality at 200 ppm [4] | pest or weed control at 200 ppm [5] | pest or weed control at 12.5 ppm [6] | pest or weed control at 200 ppm [7]

CCc1cc(C(F)(C(F)(F)F)C(F)(F)Cl)cc(Br)c1NC(=O)c1cccc(NC(=O)c2ccncc2)c1OC (stereo not shown) [Compound 20]
≥ 80%: mortality at 200 ppm [1] | pest or weed control at 200 ppm [2] | mortality at 200 ppm [3] | mortality at 200 ppm [4] | pest or weed control at 200 ppm [5] | pest or weed control at 12.5 ppm [6] | pest or weed control at 200 ppm [7]

CCc1cc(C(F)(C(F)(F)F)C(F)(F)Cl)cc(Br)c1NC(=O)c1cccc(NC(=O)c2ccc(C#N)cc2)c1OC (stereo not shown) [Compound 22]
≥ 80%: mortality at 200 ppm [1] | pest or weed control at 200 ppm [2] | mortality at 200 ppm [3] | mortality at 200 ppm [4] | pest or weed control at 200 ppm [5] | pest or weed control at 12.5 ppm [6] | pest or weed control at 200 ppm [7]

CCc1cc(C(F)(C(F)(F)F)C(F)(F)Cl)cc(Br)c1NC(=O)c1cccc(NC(=O)c2cc[n+]([O-])cc2)c1F (stereo not shown) [Compound 27]
≥ 80%: mortality at 200 ppm [1] | pest or weed control at 200 ppm [2] | mortality at 200 ppm [3] | mortality at 200 ppm [4] | pest or weed control at 200 ppm [5] | pest or weed control at 12.5 ppm [6] | pest or weed control at 200 ppm [7]

CCc1cc(C(F)(C(F)(F)F)C(F)(F)Cl)cc(Br)c1NC(=O)c1cccc(NC(=O)c2ccc[n+]([O-])c2)c1F (stereo not shown) [Compound 28]
≥ 80%: mortality at 200 ppm [1] | pest or weed control at 200 ppm [2] | mortality at 200 ppm [3] | mortality at 200 ppm [4] | pest or weed control at 200 ppm [5] | pest or weed control at 12.5 ppm [6] | pest or weed control at 200 ppm [7]

CCN(C(=O)c1ccncc1)c1cccc(C(=O)Nc2c(Cl)cc(C(F)(C(F)F)C(F)(F)F)cc2Br)c1OC (stereo not shown) [Compound 51, N-[3-[[2-bromo-6-chloro-4-[1-(difluoromethyl)-1,2,2,2-tetrafluoro-ethyl]phenyl]carbamoyl]-2-methoxy-phenyl]-N-ethyl-pyridine-4-carboxamide]
≥ 80%: mortality at 200 ppm [1] | pest or weed control at 200 ppm [2] | mortality at 200 ppm [3] | pest or weed control at 200 ppm [5] | pest or weed control at 12.5 ppm [6] | pest or weed control at 200 ppm [7]
